Experimental findings from US10670605B2, “Cysteine reactive probes and uses thereof” (The Scripps Research Institute, priority 2015, dated 2020) are described below.

What all share (assay): Competitive isoTOP-ABPP, cell lysates
Common to all, as to format: binding

One experiment deals with PES1 C361 (O00541) (Homo sapiens, UniProt O00541).
The next experiment deals with T1, NR3C1 C622 (P04150) (Homo sapiens, UniProt P04150).
T1 sequence (P04150 1-777): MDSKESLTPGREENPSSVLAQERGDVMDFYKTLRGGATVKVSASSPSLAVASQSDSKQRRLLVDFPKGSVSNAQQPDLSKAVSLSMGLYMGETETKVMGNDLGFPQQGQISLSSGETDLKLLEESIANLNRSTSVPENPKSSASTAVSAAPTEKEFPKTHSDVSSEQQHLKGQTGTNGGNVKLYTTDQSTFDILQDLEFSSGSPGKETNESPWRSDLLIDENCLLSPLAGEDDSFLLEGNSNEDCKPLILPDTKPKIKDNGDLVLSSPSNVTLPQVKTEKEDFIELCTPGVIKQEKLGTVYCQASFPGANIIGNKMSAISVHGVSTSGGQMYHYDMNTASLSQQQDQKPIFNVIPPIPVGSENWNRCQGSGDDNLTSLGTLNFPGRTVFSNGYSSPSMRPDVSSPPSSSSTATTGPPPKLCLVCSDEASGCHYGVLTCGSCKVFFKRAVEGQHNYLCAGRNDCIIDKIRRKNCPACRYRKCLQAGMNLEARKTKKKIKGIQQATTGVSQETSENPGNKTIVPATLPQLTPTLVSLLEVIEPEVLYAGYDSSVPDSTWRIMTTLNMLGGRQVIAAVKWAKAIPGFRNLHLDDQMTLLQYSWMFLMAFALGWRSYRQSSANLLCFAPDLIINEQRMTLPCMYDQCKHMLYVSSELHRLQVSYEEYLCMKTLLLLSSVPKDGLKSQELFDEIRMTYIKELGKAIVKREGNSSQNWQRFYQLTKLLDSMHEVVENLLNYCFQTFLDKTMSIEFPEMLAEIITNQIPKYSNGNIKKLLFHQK

The target in the next experiment is T2, ZAP70 C117 (P43403) (Homo sapiens, UniProt P43403).
T2 sequence (P43403 1-619): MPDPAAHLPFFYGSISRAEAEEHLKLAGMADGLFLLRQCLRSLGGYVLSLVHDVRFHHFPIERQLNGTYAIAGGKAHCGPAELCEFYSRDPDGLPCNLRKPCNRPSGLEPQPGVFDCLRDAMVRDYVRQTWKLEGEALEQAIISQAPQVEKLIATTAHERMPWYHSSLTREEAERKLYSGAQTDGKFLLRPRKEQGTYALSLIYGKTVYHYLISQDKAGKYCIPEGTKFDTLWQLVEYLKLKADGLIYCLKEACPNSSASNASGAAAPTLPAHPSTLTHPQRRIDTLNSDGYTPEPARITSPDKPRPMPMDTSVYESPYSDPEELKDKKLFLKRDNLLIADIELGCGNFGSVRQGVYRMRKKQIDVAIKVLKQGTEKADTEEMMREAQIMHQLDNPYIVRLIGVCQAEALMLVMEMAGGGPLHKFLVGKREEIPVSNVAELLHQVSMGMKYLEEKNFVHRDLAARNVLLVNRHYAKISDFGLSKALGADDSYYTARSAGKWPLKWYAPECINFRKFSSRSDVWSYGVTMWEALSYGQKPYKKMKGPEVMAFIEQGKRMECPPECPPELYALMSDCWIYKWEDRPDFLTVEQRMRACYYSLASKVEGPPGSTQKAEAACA
The note with it: for isoTOP-ABPP ratio, P43403_C117: 500 μM, invitro; for isoTOP-ABPP ratio (reactivity profile), P43403_C117: 500 μm in-vitro ramos.

PES1 C361 (O00541), sequence (O00541 whole entry, looked up): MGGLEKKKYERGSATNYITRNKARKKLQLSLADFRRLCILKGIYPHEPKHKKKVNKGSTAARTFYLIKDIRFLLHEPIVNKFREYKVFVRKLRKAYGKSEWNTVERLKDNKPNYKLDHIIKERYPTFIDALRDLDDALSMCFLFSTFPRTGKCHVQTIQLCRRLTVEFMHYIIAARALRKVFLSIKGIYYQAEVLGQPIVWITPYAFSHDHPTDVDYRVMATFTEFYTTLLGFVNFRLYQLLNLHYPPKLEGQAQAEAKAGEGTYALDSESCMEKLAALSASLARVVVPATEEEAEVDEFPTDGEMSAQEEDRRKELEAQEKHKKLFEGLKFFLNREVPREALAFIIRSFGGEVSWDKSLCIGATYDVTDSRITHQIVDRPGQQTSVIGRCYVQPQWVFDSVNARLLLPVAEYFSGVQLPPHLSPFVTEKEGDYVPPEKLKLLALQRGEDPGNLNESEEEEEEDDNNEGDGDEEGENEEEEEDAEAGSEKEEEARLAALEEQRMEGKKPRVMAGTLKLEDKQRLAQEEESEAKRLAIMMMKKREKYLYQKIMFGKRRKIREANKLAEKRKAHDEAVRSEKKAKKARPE

For `O=C(CCl)Nc1cc(C(F)(F)F)cc(C(F)(F)F)c1` [compound 3], the “R value (DMSO/fragment)” value on PES1 C361 (O00541) (500 μM, in vitro, MDA-MB-231) amounted to 1.5; at NR3C1 C622 (P04150) (500 μM, in vitro, MDA-MB-231), 20.0.

In the case of `O=C(CCl)N1CCN(S(=O)(=O)c2ccccc2F)CC1` [compound 10], the “isoTOP-ABPP ratio, P43403_C117” value on ZAP70 C117 (P43403) (231) and at ZAP70 C117 (P43403) (ramos) was 20.0 in each case.

As to `Cn1cc(S(=O)(=O)N2CCOCC2)cc1C(=O)NC(=O)CCl` [compound 11], on NR3C1 C622 (P04150) (500 μM, invitro, 231), the “isoTOP-ABPP ratio, P04150_C622” value is given as 1.7.

On to `C=CC(=O)N(Cc1cccnc1)c1ccc(Oc2ccccc2)c(C(F)(F)F)c1` [compound 15], for which, at ZAP70 C117 (P43403), the “isoTOP-ABPP ratio (reactivity profile), P43403_C117” value was determined as 20.0.

Consider `O=C(CCl)N1CCC(C(O)(c2ccccc2)c2ccccc2)CC1` [compound 20], for which, at ZAP70 C117 (P43403), the “isoTOP-ABPP ratio (reactivity profile), P43403_C117” value is recorded as 20.0. Moreover, the “isoTOP-ABPP ratio (reactivity profile), O00541_C361” value at PES1 C361 (O00541) (500 μm in-vitro ramos) and on PES1 C361 (O00541) (500 μm in-vitro ramos_231) was 20.0 throughout.

On to `N#C/C(=C\c1cc(C(F)(F)F)cc(C(F)(F)F)c1)C(N)=O` [compound 23], for which, on PES1 C361 (O00541) (500 μm in-vitro ramos), the “isoTOP-ABPP ratio (reactivity profile), O00541_C361” value was 1.1.

`COc1ccccc1OCCNC(=O)CCl` [compound 28]: the “isoTOP-ABPP ratio (reactivity profile), P43403_C117” value at ZAP70 C117 (P43403) stood at 1.1.

Take `C=CC(=O)N(Cc1cccnc1)c1cc(C(F)(F)F)cc(C(F)(F)F)c1` [compound 31]: the “isoTOP-ABPP reactivity ratio, P04150_C622” value at NR3C1 C622 (P04150) (500 μm, in-vitro_ramos_231) is listed as 4.8.
